Experimental data: the supplement of paper PMC10307832

Columns and labels:
Experiment in all cases: relative viability (nuclei count vs DMSO), 5 days (fraction); higher = more cells survive
Avagacestat + AZD7762 = compound: NC(=O)[C@@H](CCC(F)(F)F)N(Cc1ccc(-c2ncon2)cc1F)S(=O)(=O)c1ccc(Cl)cc1 [Avagacestat] + NC(=O)Nc1cc(-c2cccc(F)c2)sc1C(=O)N[C@H]1CCCNC1 [AZD7762] (partner 0.2 µM)
Summary of the method: (§1)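 Medians of duplicate plates are given as relative viability. That measure is the nuclei count in treated wells divided by the count in vehicle wells. Counts were taken on 4× images of lung cancer cell lines in 1536-well plates, 5 days after pin-tool dosing the day after seeding with one drug alone or a fixed anchor-drug dose plus five library-drug doses (not always all listed) in √10 steps.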

Avagacestat + Alpelisib = compound: NC(=O)[C@@H](CCC(F)(F)F)N(Cc1ccc(-c2ncon2)cc1F)S(=O)(=O)c1ccc(Cl)cc1 [Avagacestat] + Cc1nc(NC(=O)N2CCC[C@H]2C(N)=O)sc1-c1ccnc(C(C)(C)C(F)(F)F)c1 [Alpelisib] (partner 2 µM)
Summary of the method: as §1

Avagacestat + Phenformin = compound: NC(=O)[C@@H](CCC(F)(F)F)N(Cc1ccc(-c2ncon2)cc1F)S(=O)(=O)c1ccc(Cl)cc1 [Avagacestat] + N=C(N)NC(=N)NCCc1ccccc1 [Phenformin] (partner 250 µM)
Summary of the method: as §1

Avagacestat + Pictilisib = compound: NC(=O)[C@@H](CCC(F)(F)F)N(Cc1ccc(-c2ncon2)cc1F)S(=O)(=O)c1ccc(Cl)cc1 [Avagacestat] + CS(=O)(=O)N1CCN(Cc2cc3nc(-c4cccc5[nH]ncc45)nc(N4CCOCC4)c3s2)CC1 [Pictilisib] (partner 1 µM)
Summary of the method: as §1

Cell Line | relative viability (Avagacestat + AZD7762; first compound 0.08 µM) | relative viability (Avagacestat + AZD7762; first compound 0.253 µM) | relative viability (Avagacestat + AZD7762; first compound 0.8 µM) | relative viability (Avagacestat + AZD7762; first compound 2.53 µM) | relative viability (Avagacestat + AZD7762; first compound 8 µM) | relative viability (Avagacestat + Alpelisib; first compound 0.08 µM) | relative viability (Avagacestat + Alpelisib; first compound 0.253 µM) | relative viability (Avagacestat + Alpelisib; first compound 0.8 µM) | relative viability (Avagacestat + Alpelisib; first compound 2.53 µM) | relative viability (Avagacestat + Alpelisib; first compound 8 µM) | relative viability (Avagacestat + Phenformin; first compound 0.08 µM) | relative viability (Avagacestat + Phenformin; first compound 0.253 µM) | relative viability (Avagacestat + Phenformin; first compound 0.8 µM) | relative viability (Avagacestat + Phenformin; first compound 2.53 µM) | relative viability (Avagacestat + Phenformin; first compound 8 µM) | relative viability (Avagacestat + Pictilisib; first compound 0.08 µM) | relative viability (Avagacestat + Pictilisib; first compound 0.253 µM) | relative viability (Avagacestat + Pictilisib; first compound 0.8 µM) | relative viability (Avagacestat + Pictilisib; first compound 2.53 µM) | relative viability (Avagacestat + Pictilisib; first compound 8 µM)
HCC-366 | 0.268 | 0.272 | 0.328 | 0.235 | 0.176 | 0.749 | 0.679 | 0.565 | 0.361 | 0.308 | 0.654 | 0.709 | 0.599 | 0.562 | 0.594 | 0.137 | 0.36 | 0.0944 | 0.082 | 0.132
HCC-827 | 0.193 | 0.188 | 0.216 | 0.161 | 0.188 | 1.04 | 0.984 | 1.05 | 0.874 | 0.972 | 0.478 | 0.397 | 0.509 | 0.405 | 0.35 | 1.13 | 1.08 | 0.797 | 0.941 | 0.897
HOP-62 | 0.811 | 0.714 | 0.62 | 0.53 | 0.47 | 1 | 0.908 | 0.971 | 0.94 | 0.889 | 0.874 | 0.775 | 0.76 | 0.657 | 0.492 | 0.825 | 0.778 | 0.525 | 0.573 | 0.857
LC-2-ad | 0.947 | 0.927 | 0.843 | 0.761 | 0.616 | 0.798 | 0.707 | 0.769 | 0.81 | 0.788 | 0.577 | 0.651 | 0.713 | 0.602 | 0.554 | 0.569 | 0.41 | 0.518 | 0.382 | 0.269
LCLC-97TM1 | 0.165 | 0.397 | 0.205 | 0.264 | 0.272 | 0.265 | 0.224 | 0.185 | 0.186 | 0.218 | 0.526 | 0.472 | 0.487 | 0.481 | 0.468 | 0.184 | 0.138 | 0.139 | 0.181 | 0.145
LCLC-103H | 0.815 | 0.759 | 0.837 | 0.68 | 0.688 | 0.983 | 0.939 | 1.01 | 0.842 | 0.753 | 0.344 | 0.298 | 0.348 | 0.343 | 0.294 | 0.629 | 0.533 | 0.572 | 0.58 | 0.509
LK-2 | 0.408 | 0.384 | 0.41 | 0.4 | 0.291 | 1.51 | 1.61 | 0.949 | 1.02 | 1 | 0.6 | 0.36 | 0.32 | 0.384 | 0.375 | 0.653 | 0.76 | 0.429 | 0.473 | 0.541
LOU-NH91 | 0.828 | 0.838 | 0.864 | 0.673 | 0.736 | 0.712 | 0.724 | 0.779 | 0.608 | 0.738 | 0.708 | 0.652 | 0.862 | 0.717 | 0.754 | 0.491 | 0.475 | 0.559 | 0.515 | 0.498
LU99A | 0.422 | 0.407 | 0.314 | 0.341 | 0.329 | 0.659 | 0.498 | 0.529 | 0.51 | 0.483 | 0.867 | 0.944 | 0.923 | 0.821 | 0.902 | 0.282 | 0.325 | 0.341 | 0.277 | 0.307
LXF-289 | 1.13 | 1.08 | 1.09 | 1.16 | 0.971 | 1.08 | 1.15 | 1.04 | 1.1 | 0.949 | 0.516 | 0.505 | 0.495 | 0.495 | 0.476 | 0.786 | 0.857 | 0.781 | 0.753 | 0.66
NCI-H23 | 0.227 | 0.229 | 0.219 | 0.282 | 0.225 | 0.912 | 0.766 | 0.768 | 0.683 | 0.688 | 0.941 | 0.86 | 0.761 | 0.859 | 0.851 | 0.523 | 0.453 | 0.472 | 0.475 | 0.555
NCI-H322M | 0.609 | 0.542 | 0.496 | 0.503 | 0.588 | 0.762 | 0.787 | 0.904 | 0.633 | 0.54 | 0.733 | 0.748 | 0.712 | 0.69 | 0.65 | 0.503 | 0.487 | 0.478 | 0.441 | 0.415
NCI-H358 | 0.516 | 0.595 | 0.57 | 0.481 | 0.461 | 0.938 | 0.908 | 0.872 | 0.711 | 0.777 | 0.357 | 0.352 | 0.391 | 0.323 | 0.325 | 0.356 | 0.337 | 0.493 | 0.349 | 0.385
NCI-H441 | 1.02 | 1.23 | 1.37 | 1.35 | 0.877 | 0.92 | 0.761 | 1.05 | 0.973 | 0.986 | 1.23 | 0.957 | 1.02 | 0.917 | 0.676 | 0.54 | 0.515 | 0.496 | 0.442 | 0.415
NCI-H460 | 0.768 | 0.87 | 0.863 | 0.682 | 0.608 | 0.724 | 0.538 | 0.688 | 0.472 | 0.357 | 0.597 | 0.866 | 0.771 | 0.337 | 0.379 | 0.425 | 0.361 | 0.454 | 0.441 | 0.365
NCI-H596 | 1.21 | 1.14 | 1.17 | 0.971 | 1.05 | 0.584 | 0.482 | 0.479 | 0.466 | 0.491 | 0.78 | 0.717 | 0.867 | 0.699 | 0.653 | 0.414 | 0.43 | 0.395 | 0.354 | 0.374
NCI-H647 | 0.634 | 0.484 | 0.565 | 0.516 | 0.292 | 1.46 | 0.994 | 1.3 | 0.959 | 0.884 | 0.534 | 0.587 | 0.692 | 0.487 | 0.414 | 0.487 | 0.504 | 0.459 | 0.41 | 0.372
NCI-H650 | 1.06 | 0.963 | 1.19 | 1.09 | 0.822 | 1.12 | 1.57 | 1.21 | 1.32 | 1.19 | 0.484 | 0.456 | 0.461 | 0.524 | 0.41 | 0.768 | 0.989 | 1.03 | 1.07 | 0.82
NCI-H727 | 0.678 | 0.651 | 0.78 | 0.651 | 0.784 | 0.749 | 0.682 | 0.695 | 0.467 | 0.558 | 0.684 | 0.489 | 0.778 | 0.421 | 0.613 | 0.537 | 0.356 | 0.512 | 0.434 | 0.603
NCI-H838 | 0.988 | 0.971 | 0.997 | 0.857 | 0.861 | 1.19 | 1.18 | 1.06 | 0.906 | 0.814 | 0.622 | 0.537 | 0.598 | 0.509 | 0.484 | 0.504 | 0.405 | 0.568 | 0.411 | 0.319
NCI-H1355 | 0.98 | 0.777 | 0.809 | 0.654 | 0.699 | 0.924 | 0.994 | 0.74 | 0.759 | 0.787 | 0.499 | 0.441 | 0.465 | 0.422 | 0.41 | 0.442 | 0.423 | 0.421 | 0.385 | 0.418
NCI-H1395 | 0.407 | 0.365 | 0.369 | 0.412 | 0.333 | 0.938 | 0.996 | 0.879 | 1.05 | 0.943 | 0.424 | 0.456 | 0.432 | 0.45 | 0.457 | 0.601 | 0.735 | 0.658 | 0.488 | 0.702
NCI-H1437 | 1.16 | 1.15 | 1.02 | 1.09 | 0.906 | 1.22 | 1.25 | 0.921 | 0.894 | 0.849 | 0.382 | 0.378 | 0.342 | 0.266 | 0.287 | 0.388 | 0.399 | 0.417 | 0.399 | 0.366
NCI-H1651 | 0.531 | 0.538 | 0.561 | 0.441 | 0.36 | 1.05 | 1.3 | 1.15 | 0.978 | 0.909 | 0.321 | 0.343 | 0.358 | 0.293 | 0.354 | 0.566 | 0.576 | 0.711 | 0.585 | 0.368
NCI-H1666 | 1 | 0.88 | 1 | 0.93 | 0.876 | 1.26 | 0.982 | 1.32 | 1.03 | 1.1 | 0.686 | 0.639 | 0.619 | 0.603 | 0.603 | 0.416 | 0.445 | 0.499 | 0.48 | 0.49
NCI-H1734 | 0.612 | 0.65 | 0.641 | 0.5 | 0.592 | 0.896 | 0.641 | 0.737 | 0.674 | 0.67 | 0.451 | 0.433 | 0.366 | 0.373 | 0.384 | 0.538 | 0.483 | 0.462 | 0.419 | 0.418
